“Also recorded” adds a separate entry of the source.
Key:
[1] = molecular target: T1, psychLight1 (Homo sapiens, UniProt P28223, E264Q/I181A); test: cell-based; type: cell-based; set-up: fluorescence intensity change, confocal with psychLight1: dose or concentration left out as unconfirmed; conditions: n=3
Method: HEK293T cells were grown in DMEM, supplemented with fetal bovine serum (FBS) and penicillin-streptomycin. Cells were trans-fected with Effectene according to the manufacturer's instructions. Prior to imaging, cells were washed with Hank's Balanced Salt Solution (HBSS) supplemented with 2 mM MgCl2 and 2 mM CaCl2). All images were collected in HBSS containing Mg^2+ and Ca^2+.
HEK293T cells were plated and transfected concurrently 24 h prior to each experiment using the QIAGEN Effectene Transfection
Dose-response experiments were performed using an Automate Perfusion System. Cells (HEK293T) were grown on 12 mm cover-slips and transfected with psychLight1. The coverslips were then placed into a coverslip holder and washed with 5 mL of HBSS containing 2 mM MgCl2 and 2 mM CaCl2). Cells were perfused first with 5 mL of 0.1% DMSO, then drugs in ascending concentrations from 1 pM to […] were added, with the concentration of DMSO being held constant at 0.10%. […] For the competition studies described in FIG. 19, HEK293T cells were prepared as described above; however, the cells were first exposed to 5 mL of 0.2% DMSO. […] Analysis was performed by taking 3 ROIs on the cell membrane using ImageJ and calculating the mean intensity for each ROI across the time-points. Finally, the DF/F was calculated using the average of the baseline (0.1 or 0.2% DMSO) and the average intensity between each dosage over the average of the baseline.

[2] = tested on: psychLight; test: Schild regression analysis in PSYLI2 cells; type: cell-based, human
Method: During imaging, […] of imaging media were added to each well of the assay plate. Wells were then imaged on a Lecia DMi8 using Leica Application Suite X (V3.6.0.20104) at 40×(N.A.=0.6) with 5 regions of interest (ROI) taken per well using the default 5 ROI pattern for each well with no bias to location and no overlap of the ROIs (exposure=350 ms, LED power=80%). Next, […] from the treatment plate was transferred to the assay plate for a final 1:1000 dilution of drug. All final drug treatments contained 0.1% DMSO. After 5 min of incubation, the same sites were re-imaged using the same settings. The data analysis method was the same as in agonist and antagonist mode.

[3] = molecular target: T1, psychLight1; type: cell-based
[4] = tested on: psychLight2; test: PSYLI2 high-content imaging, agonist mode; type: cell-based, human; set-up: dose or concentration left out as unconfirmed

T1 sequence (P28223 whole entry I181A/E264Q, looked up): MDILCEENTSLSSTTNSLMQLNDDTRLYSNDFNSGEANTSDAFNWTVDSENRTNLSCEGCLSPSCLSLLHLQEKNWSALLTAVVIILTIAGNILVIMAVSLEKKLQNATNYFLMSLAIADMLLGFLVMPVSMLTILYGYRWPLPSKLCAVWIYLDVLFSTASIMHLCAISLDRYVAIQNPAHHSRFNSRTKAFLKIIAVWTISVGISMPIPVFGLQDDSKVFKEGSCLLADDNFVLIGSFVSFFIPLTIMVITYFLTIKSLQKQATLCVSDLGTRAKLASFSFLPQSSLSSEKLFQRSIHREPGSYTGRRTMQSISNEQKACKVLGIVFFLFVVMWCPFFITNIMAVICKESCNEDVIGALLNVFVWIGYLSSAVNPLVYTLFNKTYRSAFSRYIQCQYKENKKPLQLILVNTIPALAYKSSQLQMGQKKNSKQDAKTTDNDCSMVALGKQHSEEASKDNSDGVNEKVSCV

## COc1ccc2c(CCN(C)C)c[nH]c2c1 [6-MeO, 6-methoxy-N,N-dimethyltrypta-mine]
[1]
  fluorescence intensity change, confocal with psychLight1: −1.1±4.6%
[2]
  Schild regression (pA2) outcome: significantly less potent
[3]
  binding shown by competing off 5-HT: capable of binding to the receptor despite the fact that they lack efficacy; also recorded: capable of binding to the receptor despite lacking efficacy; also recorded: can compete off 5-HT resulting in a reduction in psychLight fluorescence
[4]
  fluorescence intensity change, high content imager with psychLight2: −3.0±2.7%
